Assays:
GSPT1 = GSPT1 (Homo sapiens, UniProt P15170+Q96SW2); assay: GSPT1 degradation in tumors of mice treated with compound 210; format: in vivo; set-up: from tissue; host or cells: NCI-H1155 subcutaneous xenograft tumours from BALB/c nude mice; settings: 1 mg/kg, 3 mg/kg, 6 mg/kg; compared to vehicle control
[1] = system: human cell line NCI-H1155 xenograft; assay: N-Myc-driven mouse xenograft model, NCI-H1155, compound 210 oral; format: in vivo
L-Myc = L-Myc levels in SCLC lines after Compound 345 (western blot); format: cell-based; settings: SCLC lines NCI-H1836 and NCI-H1876
From the text: NCI-H1836 and NCI-H1876 were taken as two representatives of L-Myc high SCLC. Western blot analysis probing for GSPT1 and L-Myc following treatment with Compound 345 as indicated. GAPDH was used as a loading control.

MM1S cell line = assay: Caspase 3/7 apoptosis Glo assay in MM1S; format: cell-based; settings: 48 hr treatment
NSCLC cell lines = assay: Viability assay, 72 hr CellTiter Glo, NSCLC cell line panel (Compound 345); format: cell-based; settings: panel of NSCLC cell lines
Experimental: EC50 scores for Compound 345 were measured in a panel of NSCLC cell lines. Each cell line was scored for NSCLC biomarkers and EC50 values were plotted against NSCLC biomarker score. Results of this experiment are shown in the scatter plot of FIG. 11A. High N-Myc expressing cell lines were enriched in the lower right quadrant of the scatterplot, indicating high NSCLC biomarker scores and high sensitivity to Compound 345.
Viability assay: Compound 345 was tested in a panel of 156 lung cancer cell lines (including non small cell lung cancer (NSCLC) and small cell lung cancer (SCLC) cell lines and 46 lymphoma cell lines using a 72 hr CellTiter Glo assay format. Cells were sub-cultured as recommended by the providers (ATCC, DSMZ) and incubated at 37° C., 5% CO2. All cells were authenticated and confirmed by Short Tandem Repeat (STR) profiling. Briefly, each lung cancer cell line was preferentially seeded in 384-well plates (100 μL/well) at a density previously determined to be in log growth phase 72 hour post-seeding (typically in the 400-2400 cells/well range). […] Cell viability was assessed using the CellTiter-Glo® 2.0 Assay as recommended by the Manufacturer (Promega, Cat. No. G7558, Lot. No. 0000385738) and measurements performed on the EnSpire multimode plate reader (Perkin Elmer). […]

Myc target genes = assay: RNAseq ssGSEA of Myc target genes in NCI-H1155 and NCI-H2023; format: cell-based; settings: high N-Myc expressing cells, 0.1 μM and 1 μM
Experimental: A High N-Myc expressing NSCLC cell lines ([…]) and a low N-Myc expressing NSCLC cell lines (NCI-H2023) were treated with Compound 345 in culture. Cells were treated with increasing concentrations of the compound (0.0; 0.03; 0.3; 3 μM), cells were withdrawn from the culture at time points of 0, 2, and 6 hours, lysates were prepared, SDS-PAGE and immunoblotting was performed, and transfer membranes were probed for GSPT1, N-Myc, and Tubulin as a loading control (N-Myc was not probed in the NCI-2023 experiment). […] For the same cell lines, RNAseq followed by single sample gene set enrichment analysis (ssGSEA) was performed at six hours and 24 hours after treatment with Compound 345. […]
Transcriptomics experiment in NCI-H1155 and NCI-H2023 NSCLC lines: NCI-H1155 and NCI-H2023 were typically seeded in a 6 well plate (0.5×10^6 NCI-H1155 cells/mL; 0.3×10^6 NCI-H2023 cells/mL; 2 ml/well) and incubated overnight. […] Total RNA yields and quality were measured using the DeNovix DS-11 Spectrophotometer. […] Library yields were measured using a QuBit 4 fluorometer ([…], Q33238) and sizes were measured using a Tapestation 4150 (Agilent, G2992AA) and screentape (Agilent, 5067-5562). […] The modulation of Myctarget gene expression upon treatment with MRT-2359 was analyzed in RNAseq profiles of both Myc-driven (NCI-Hi 155) and non-Mycdriven (NCI-H2023) cell lines. […]

GSPT1, sequence (P15170 whole entry): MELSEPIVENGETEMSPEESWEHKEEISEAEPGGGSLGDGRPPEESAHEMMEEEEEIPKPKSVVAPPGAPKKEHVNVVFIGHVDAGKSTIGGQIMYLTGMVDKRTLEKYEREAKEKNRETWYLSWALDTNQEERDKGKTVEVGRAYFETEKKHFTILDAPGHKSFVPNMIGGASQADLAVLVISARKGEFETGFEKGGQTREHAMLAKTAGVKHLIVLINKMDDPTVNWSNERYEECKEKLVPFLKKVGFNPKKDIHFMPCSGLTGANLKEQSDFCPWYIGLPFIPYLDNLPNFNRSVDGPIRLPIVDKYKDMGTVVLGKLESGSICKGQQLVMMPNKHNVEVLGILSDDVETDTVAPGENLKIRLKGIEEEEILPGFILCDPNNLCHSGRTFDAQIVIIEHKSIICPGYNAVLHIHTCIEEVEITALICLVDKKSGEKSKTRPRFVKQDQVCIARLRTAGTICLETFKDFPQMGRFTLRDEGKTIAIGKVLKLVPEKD
GSPT1, sequence (Q96SW2 whole entry): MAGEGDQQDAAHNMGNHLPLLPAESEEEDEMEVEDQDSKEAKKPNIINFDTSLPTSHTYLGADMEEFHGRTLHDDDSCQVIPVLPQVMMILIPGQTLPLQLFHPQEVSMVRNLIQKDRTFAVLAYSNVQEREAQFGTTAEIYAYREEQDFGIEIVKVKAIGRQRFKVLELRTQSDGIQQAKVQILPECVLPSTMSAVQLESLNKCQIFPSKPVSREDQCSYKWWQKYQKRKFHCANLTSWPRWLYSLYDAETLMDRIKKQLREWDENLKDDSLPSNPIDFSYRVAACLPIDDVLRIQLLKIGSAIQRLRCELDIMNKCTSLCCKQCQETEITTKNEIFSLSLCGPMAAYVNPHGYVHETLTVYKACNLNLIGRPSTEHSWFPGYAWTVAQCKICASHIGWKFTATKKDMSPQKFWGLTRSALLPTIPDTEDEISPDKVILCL
GSPT1, sequence (Q16531 whole entry partner): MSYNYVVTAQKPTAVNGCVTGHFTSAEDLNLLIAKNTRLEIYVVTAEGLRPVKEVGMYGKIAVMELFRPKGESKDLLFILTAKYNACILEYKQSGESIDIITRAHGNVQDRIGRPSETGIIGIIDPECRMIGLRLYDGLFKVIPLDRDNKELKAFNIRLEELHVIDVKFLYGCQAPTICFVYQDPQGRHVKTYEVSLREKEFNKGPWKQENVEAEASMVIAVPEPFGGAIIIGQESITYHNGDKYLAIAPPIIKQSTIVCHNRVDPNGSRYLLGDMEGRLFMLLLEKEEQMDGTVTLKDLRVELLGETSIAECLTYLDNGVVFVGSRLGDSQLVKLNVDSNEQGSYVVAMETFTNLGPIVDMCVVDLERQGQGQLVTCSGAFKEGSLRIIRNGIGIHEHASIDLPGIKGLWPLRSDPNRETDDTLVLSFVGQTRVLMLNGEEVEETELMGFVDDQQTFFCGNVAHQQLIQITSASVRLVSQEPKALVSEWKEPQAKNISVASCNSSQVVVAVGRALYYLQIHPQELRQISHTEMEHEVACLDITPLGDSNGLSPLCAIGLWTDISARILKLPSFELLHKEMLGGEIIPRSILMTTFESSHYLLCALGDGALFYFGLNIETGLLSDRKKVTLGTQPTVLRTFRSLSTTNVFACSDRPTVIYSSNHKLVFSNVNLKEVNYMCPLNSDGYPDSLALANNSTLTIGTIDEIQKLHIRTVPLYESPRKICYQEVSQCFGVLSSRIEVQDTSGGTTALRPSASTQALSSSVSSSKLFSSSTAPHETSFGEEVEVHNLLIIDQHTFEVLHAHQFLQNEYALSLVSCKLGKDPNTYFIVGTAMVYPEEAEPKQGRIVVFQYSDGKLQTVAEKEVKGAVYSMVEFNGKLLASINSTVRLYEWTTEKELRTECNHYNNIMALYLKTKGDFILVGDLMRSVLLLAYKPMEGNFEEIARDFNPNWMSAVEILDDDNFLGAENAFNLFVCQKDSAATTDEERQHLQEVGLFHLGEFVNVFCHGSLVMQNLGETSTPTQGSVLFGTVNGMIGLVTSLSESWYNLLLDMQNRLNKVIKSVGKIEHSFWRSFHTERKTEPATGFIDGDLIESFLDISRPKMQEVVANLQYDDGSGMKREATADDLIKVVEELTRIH

SMILES	GSPT1 degradation in tumors (GSPT1)	tumor growth ([1]; 1 mg/kg once daily PO)	tumor size ([1]; 3 mg/kg once daily PO)	tumor size ([1]; 6 mg/kg PO, five days on and nine days off)	body weight ([1]; oral administration (PO))	tumor growth ([1]; oral administration (PO))	L-Myc level, timecourse (L-Myc)	apoptosis (Caspase 3/7) (MM1S cell line)	cell viability in Myc-driven and non-Myc-driven NSCLC (NSCLC cell lines)	ssGSEA score, Myc gene set (Myc target genes; 24 hours)	ssGSEA score, Myc gene set (Myc target genes; six hours)
Cc1ccc(NC(=O)OCc2ccc3c(c2)C(=O)N(C2CCC(=O)NC2=O)C3)cc1Cl (centres unmarked) [Compound 210]	complete degradation of GSPT1	tumor growth was suppressed for two weeks	tumor size decreased, became undetectable by day eight and remained so until the end of the study at day 21	tumor size decreased, became undetectable by day eight and remained so until the end of the study at day 21	no body weight loss observed	tumor growth inhibition	–	–	–	–	–
O=C1CCC(N2Cc3ccc(COC(=O)Nc4cc(OC(F)(F)F)ccc4F)cc3C2=O)C(=O)N1 (centres unmarked) [Compound 345, (2-(2,6-dioxopiperidin-3-yl)-3-oxoisoindolin-5-yl)methyl(2-fluoro-5-(trifluoromethoxy)phenyl)carbamate]	–	–	–	–	–	–	downregulation of L-Myc	Apoptosis induction	cell viability was significantly reduced in only Myc-driven NSCLC	significant downregulation of the Myc gene set	modest down regulation of the Myc gene set

Reference: patent US20240261274A1, “TREATMENT OF MYC-DRIVEN CANCERS WITH GSPT1 DEGRADERS” (MONTE ROSA THERAPEUTICS, INC., priority 2021, published 2024)
